Literature values, collected in PubChem BioAssay AID1259409 (Chemical Carcinogenesis Research Information System (CCRIS), 2018).

Tested on: rodent chemically induced tumor inhibition, incidence and multiplicity
Assay: CCRIS tumor inhibitor studies

For O=C(O)[C@@H](O)[C@@H](O)[C@H](O)[C@@H](O)C(=O)O, the “tumour outcome (control, treated, inhibition, significance)” value (Carcinogen: 7,12-DIMETHYLBENZ[A]ANTHRACENE, 57-97-6, Dose [Inhibitor]: 0, 2% IN DIET FOR THE DURATION OF STUDY BEGINNING 1 WK PRIOR TO CARCINOGEN DOSE (STUDY DURATION: 105 WK), Route [Inhibitor]: ORAL, Species: RAT, Strain/Sex: SPRAGUE-DAWLEY/FEMALE, Target Tissue: Type of Lesion: MAMMARY GLAND: TUMOR, Dose [Carcinogen]: 15 MG IN 1 ML SESAME OIL ONCE, Promoter: NONE USED) is given as 88%, 80%, 9%, not significant, the “tumour outcome (control, treated, inhibition, significance)” value (Carcinogen: 7,12-DIMETHYLBENZ[A]ANTHRACENE, 57-97-6, Dose [Inhibitor]: 0, 128 MMOL/KG OF DIET FOR 15.5 WK BEGINNING 10 D POST CARCINOGEN DOSE (STUDY DURATION: 17 WK), Route [Inhibitor]: ORAL, Species: RAT, Strain/Sex: SPRAGUE-DAWLEY/FEMALE, Target Tissue: Type of Lesion: MAMMARY GLAND: TUMOR, Dose [Carcinogen]: 15 MG IN 1 ML OF SESAME OIL ONCE AT 50 D OF AGE, Promoter: NONE USED) is given as 92%, 58%, 37%, not calculated and the “tumour outcome (control, treated, inhibition, significance)” value (Carcinogen: 7,12-DIMETHYLBENZ[A]ANTHRACENE, 57-97-6, Dose [Inhibitor]: 0, 128 MMOL/KG OF DIET FOR 18.5 WK BEGINNING 10 D PRIOR TO CARCINOGEN DOSE (STUDY DURATION: 18.5 WK), Route [Inhibitor]: ORAL, Species: RAT, Strain/Sex: SPRAGUE-DAWLEY/FEMALE, Target Tissue: Type of Lesion: MAMMARY GLAND: TUMOR, Dose [Carcinogen]: 15 MG IN 1 ML OF SESAME OIL ONCE AT 50 D OF AGE, Promoter: NONE USED) is given as 83%, 50%, 40%, not calculated. For the same molecule, the “tumour outcome (control, treated, inhibition, significance)” value (Carcinogen: 7,12-DIMETHYLBENZ[A]ANTHRACENE, 57-97-6, Dose [Inhibitor]: 0, 128 MMOL/KG OF DIET FOR 20 D BEGINNING 10 D PRIOR TO CARCINOGEN DOSE (STUDY DURATION: 18.5 WK), Route [Inhibitor]: ORAL, Species: RAT, Strain/Sex: SPRAGUE-DAWLEY/FEMALE, Target Tissue: Type of Lesion: MAMMARY GLAND: TUMOR, Dose [Carcinogen]: 15 MG IN 1 ML OF SESAME OIL ONCE AT 50 D OF AGE, Promoter: NONE USED) was 100%, 82%, 18%, not calculated, the “tumour outcome (control, treated, inhibition, significance)” value (Carcinogen: 7,12-DIMETHYLBENZ[A]ANTHRACENE, 57-97-6, Dose [Inhibitor]: 32 MMOL/KG OF CHOW DIET IN 25 ML OF THE VEHICLE (ETHANOL/TRICAPRYLIN 1:4 (VOL/VOL) PLUS 6% (WT/VOL) ALPHA-TOCOPHEROL) BE, Route [Inhibitor]: ORAL, Species: RAT, Strain/Sex: SPRAGUE-DAWLEY/FEMALE, Target Tissue: Type of Lesion: MAMMARY GLAND: TUMOR, Dose [Carcinogen]: 75 MG/KG BW IN 1.0 ML SESAME OIL ONCE, Promoter: NONE USED) was 70%, 55%, 21%, not significant and the “tumour outcome (control, treated, inhibition, significance)” value (Carcinogen: 7,12-DIMETHYLBENZ[A]ANTHRACENE, 57-97-6, Dose [Inhibitor]: 64 MMOL/KG OF CHOW DIET IN 25 ML OF THE VEHICLE (ETHANOL/TRICAPRYLIN 1:4 (VOL/VOL) PLUS 6% (WT/VOL) ALPHA-TOCOPHEROL) BE, Route [Inhibitor]: ORAL, Species: RAT, Strain/Sex: SPRAGUE-DAWLEY/FEMALE, Target Tissue: Type of Lesion: MAMMARY GLAND: TUMOR, Dose [Carcinogen]: 75 MG/KG BW IN 1.0 ML SESAME OIL ONCE, Promoter: NONE USED) was 70%, 55%, 21%, not significant. For the same molecule, the “tumour outcome (control, treated, inhibition, significance)” value (Carcinogen: 7,12-DIMETHYLBENZ[A]ANTHRACENE, 57-97-6, Dose [Inhibitor]: 128 MMOL/KG OF CHOW DIET IN 25 ML OF THE VEHICLE (ETHANOL/TRICAPRYLIN 1:4 (VOL/VOL) PLUS 6% (WT/VOL) ALPHA-TOCOPHEROL) B, Route [Inhibitor]: ORAL, Species: RAT, Strain/Sex: SPRAGUE-DAWLEY/FEMALE, Target Tissue: Type of Lesion: MAMMARY GLAND: TUMOR, Dose [Carcinogen]: 75 MG/KG BW IN 1.0 ML SESAME OIL ONCE, Promoter: NONE USED) was 70%, 35%, 50%, not significant and the “tumour outcome (control, treated, inhibition, significance)” value (Carcinogen: AZOXYMETHANE [25843-45-2], Dose [Inhibitor]: 3.5% IN DIET FOR 38 WK BEGINNING 1 WK POST LAST CARCINOGEN DOSE (STUDY DURATION: 40 WK), Route [Inhibitor]: ORAL, Species: RAT, Strain/Sex: F344/MALE, Target Tissue: Type of Lesion: COLON: TUMOR, Dose [Carcinogen]: 15 MG/KG BW 1X/WK FOR 2 WK (STUDY DURATION: 40 WK), Promoter: NONE) was 15/26 (57.7%), 6/24 (25.0%), 57%, p<0.05.

For O=C(O)c1cc(=O)[nH]c(=O)[nH]1, the “tumour outcome (control, treated, inhibition, significance)” value (Carcinogen: URETHANE, 51-79-6, Dose [Inhibitor]: 0.1 MG/GM BW AS A 1% SUSPENSION IN DISTILLED WATER ONCE 14 WK OF AGE SIMULTANEOUS WITH CARCINOGEN TREATMENT (STUDY DURAT, Route [Inhibitor]: INTRAPERITONEAL, Species: MOUSE, Strain/Sex: SWR/MALE, Target Tissue: Type of Lesion: LUNG: ADENOMA, Dose [Carcinogen]: 1 MG/G BW IN DISTILLED WATER ONCE, Promoter: NONE USED) is given as 100%, 100%, 0%, not significant, the “tumour outcome (control, treated, inhibition, significance)” value (Carcinogen: URETHANE, 51-79-6, Dose [Inhibitor]: 0.1 MG/GM BW AS A 1% SUSPENSION IN DISTILLED WATER TWICE AT 13 WK OF AGE GIVEN 24 HR APART STARTING 24 HR PRIOR TO CARCI, Route [Inhibitor]: INTRAPERITONEAL, Species: MOUSE, Strain/Sex: SWR/MALE, Target Tissue: Type of Lesion: LUNG: ADENOMA, Dose [Carcinogen]: 0.5 MG/GM BW IN DISTILLED WATER ONCE AT SAME TIME AS LAST AGENT TREATMENT, Promoter: NONE USED) is given as 83%, 100%, -20%, not significant and the “tumour outcome (control, treated, inhibition, significance)” value (Carcinogen: URETHANE, 51-79-6, Dose [Inhibitor]: 0.1 MG/GM BW AS A 1% SUSPENSION IN DISTILLED WATER TWICE AT 22 WK OF AGE GIVEN 24 HR APART STARTING 24 HR PRIOR TO CARCI, Route [Inhibitor]: INTRAPERITONEAL, Species: MOUSE, Strain/Sex: SWR/MALE, Target Tissue: Type of Lesion: LUNG: ADENOMA, Dose [Carcinogen]: 0.5 MG/GM BW IN DISTILLED WATER ONCE AT SAME TIME AS LAST AGENT TREATMENT, Promoter: NONE USED) is given as 71%, 71%, 0%, not significant.

In the case of C=C(CC[C@@H](C(=O)O)[C@H]1[C@H](O)C[C@@]2(C)C3=C(CC[C@]12C)[C@@]1(C)CC[C@H](OC(C)=O)C(C)(C)[C@@H]1CC3)C(C)C, the “tumour outcome (control, treated, inhibition, significance)” value (Carcinogen: 7,12-DIMETHYLBENZ[A]ANTHRACENE, 57-97-6, Dose [Inhibitor]: 0, 0.2 UMOL 2/WK FOR 19 WK BEGINNING 1 WK POST CARCINOGEN DOSE (STUDY DURATION: 20 WK), Route [Inhibitor]: DERMAL, Species: MOUSE, Strain/Sex: ICR, Target Tissue: Type of Lesion: SKIN: PAPILLOMA, Dose [Carcinogen]: 50 UG ONCE, Promoter: 12-O-TETRADECANOYLPHORBOL-13-ACETATE, 16561-29-8) is given as 73%, 25%, 66%, not calculated and the “tumour outcome (control, treated, inhibition, significance)” value (Carcinogen: 7,12-DIMETHYLBENZ[A]ANTHRACENE, 57-97-6, Dose [Inhibitor]: 0, 0.2 UMOL IN 100 µL ACETONE:DMSO (9:1) 2/WK FOR 20 WK APPLIED 30 MIN PRIOR TO EACH CARCINOGEN DOSE (STUDY DURATION: 20, Route [Inhibitor]: DERMAL, Species: MOUSE, Strain/Sex: ICR/FEMALE, Target Tissue: Type of Lesion: SKIN: PAPILLOMA, Dose [Carcinogen]: 50 UG IN 100 µL ACETONE ONCE, Promoter: 12-O-TETRADECANOYLPHORBOL-13-ACETATE, 16561-29-8) is given as 73%, 27%, 63%, p<0.01.

For COc1cc([C@H]2Oc3cc([C@H]4Oc5cc(O)cc(O)c5C(=O)[C@@H]4O)ccc3O[C@@H]2CO)ccc1O, the outcome (Carcinogen: N-Butyl-N-(4-hydroxybutyl)nitrosamine, 3817-11-6, Dose [Inhibitor]: 200 mg/kg bw 1 wk before carcinogen, dose duration 51 wk, study duration 56 wk, Route [Inhibitor]: Oral (gavage) 5 d/wk, Species: Mouse, Strain/Sex: ICR/Male, Target Tissue: Type of Lesion: Urinary Bladder: carcinoma, Dose [Carcinogen]: 0, 0.5% in drinking water for 6 wk, Promoter: None) is listed as 52%, 4.1%, p=0.001.

For CCCCCCCCCCCCCCCCCCCCCCCCCC(=O)N[C@@H](CO[C@H]1O[C@H](CO)[C@H](O)[C@H](O)[C@H]1O)[C@H](O)[C@H](O)CCCCCCCCCCCCCC, the outcome (Carcinogen: N-BUTYL-N-(4-HYDROXYBUTYL)NITROSAMINE, 3817-11-6, Dose [Inhibitor]: 0, 0.1 UG/KG ONCE/WK FOR 17 WK BY INTRAVESICULAR INSTILLATION UNDER ANESTHESIA, BEGINNING 1 WK AFTER INITIATION PERIOD (, Route [Inhibitor]: INTRAVESICULAR, Species: MOUSE, Strain/Sex: C57BL6/FEMALE, Target Tissue: Type of Lesion: URINARY BLADDER: SQUAMOUS CELL CARCINOMA, Dose [Carcinogen]: 0.05% IN DRINKING WATER FOR 8 WK) is listed as 0/13 (0%), 0/13 (0%), not significant, the outcome (Carcinogen: N-BUTYL-N-(4-HYDROXYBUTYL)NITROSAMINE, 3817-11-6, Dose [Inhibitor]: 0, 10 UG/KG ONCE/WK FOR 17 WK BY INTRAVESICULAR INSTILLATION UNDER ANESTHESIA, BEGINNING 1 WK AFTER INITIATION PERIOD (S, Route [Inhibitor]: INTRAVESICULAR, Species: MOUSE, Strain/Sex: C57BL6/FEMALE, Target Tissue: Type of Lesion: URINARY BLADDER: SQUAMOUS CELL CARCINOMA, Dose [Carcinogen]: 0.05% IN DRINKING WATER FOR 8 WK) is listed as 0/13 (0%), 2/11 (18.2%), not significant and the “tumour outcome (control, treated, inhibition, significance)” value (Carcinogen: N-BUTYL-N-(4-HYDROXYBUTYL)NITROSAMINE, 3817-11-6, Dose [Inhibitor]: 0, 10 UG/KG ONCE/WK FOR 17 WK BY INTRAVESICULAR INSTILLATION UNDER ANESTHESIA, BEGINNING 1 WK AFTER INITIATION PERIOD (S, Route [Inhibitor]: INTRAVESICULAR, Species: MOUSE, Strain/Sex: C57BL6/FEMALE, Target Tissue: Type of Lesion: URINARY BLADDER: TRANSITIONAL CELL CARCINOMA, Dose [Carcinogen]: 0.05% IN DRINKING WATER FOR 8 WK) is listed as 1/13 (7.7%), 3/11 (27.3%), -254%, not significant.
